{
  "source": "patent US20240382508A1",
  "about": "“REGENERATIVE AGENT FOR BONE TISSUE AND LUNG TISSUE, AND PHARMACEUTICAL COMPOSITION FOR REGENERATING BONE TISSUE AND LUNG TISSUE” (NIIGATA UNIVERSITY, priority 2021, published 2024)",
  "key": {"[1]": {"system": "experimental periodontitis model mice", "assay": "bone regeneration in experimental periodontitis model mice (teeth ligated with silk threads)", "type": "in vivo, mouse", "details": "22-month-old aging mice; 20 mg/kg intraperitoneally once; 5 days regeneration period", "source_text": "Experimental periodontitis model mice in which teeth are ligated with silk threads are useful models for inflammatory bone destruction research because inflammations and bone resorption occur in about 10 days after the ligation. The above-described experimental periodontitis models were produced by using 6-week-old wild-type mice (N=8, male C57BL/6N mice, manufactured by CLEA Japan, Inc.), 22-month-old aging mice (N=4, male C57BL/6N mice, manufactured by CLEA Japan, Inc.), and 6-week-old DEL-1-deficient mice (N=8, male C57BL/6N mice (manufactured by CLEA Japan, Inc.), a method for producing the deficient mice was as described in Non Patent Document 1), the silk threads were removed 10 days after the ligation, a remission phase of inflammation of 5 days passed, and in the wild-type mice, new bone formation was recognized at the site of resorbed bone defect while no repair mechanism of the periodontal tissue by DEL-1 was recognized.\nThe experimental periodontitis models described in Example 1 were produced by using 6-week-old wild-type mice (N=8, male C57BL/6N mice, manufactured by CLEA Japan, Inc.), 22-month-old aging mice (N=4, male C57BL/6N mice, manufactured by CLEA Japan, Inc.), and 6-week-old DEL-1-deficient mice (N=8, male C57BL/6N mice (manufactured by CLEA Japan, Inc.), a method for producing the deficient mice was as described in Non Patent Document 1), the silk threads were removed 10 days after the ligation to experimentally induce periodontitis, subsequently a bone regeneration period of 5 days was provided, and then the amount of regeneration of resorbed bone was measured using a stereomicroscope and image measurement software (manufactured by Nikon Corporation). Erythromycin (10 mg/kg) and ethanol (final concentration 0.1% by mass) were intraperitoneally administered once after the removal of the silk threads. In addition, DEL-1 (1 μg) and Fc control (0.84 μg) were directly inoculated into the gingiva after the removal of the silk threads. The results are shown in FIG. 3 (left: wild-type mice, right: DEL-1-deficient mice) and FIG. 4 (aging mice).\nNext, the experimental periodontitis model described in Example 1 was produced by using 22-month-old aging mice (N=4, male C57BL/6N mouse, manufactured by CLEA Japan, Inc.), the silk threads were removed 10 days after the ligation to experimentally induce periodontitis, subsequently a bone regeneration period of 5 days was provided, and the amount of regeneration of resorbed bone was measured using a stereomicroscope and image measurement software (manufactured by Nikon Corporation). Erythromycin (ERM) (20 mg/kg), azithromycin (AZM) (20 mg/kg), clarithromycin (CLM) (20 mg/kg), and ethanol (final concentration 0.1% by mass) as a control were intraperitoneally administered once after the removal of the silk threads. […] In addition, there was no difference in the amount of bone regeneration between the macrolide antimicrobial agent-administered groups."}, "[2]": {"system": "osteoblasts", "assay": "bone nodule measurement in osteoblasts (Alizarin red S)", "type": "cell-based, mouse", "details": "osteoblasts derived from wild-type mice; 10 μg/mL each; 15 days", "description": "Next, from the cranial bones of 3-day-old wild-type mice (N=6, male C57BL/6N mice, manufactured by CLEA Japan, Inc.) and 3-day-old DEL-1-deficient mice (N=6, male C57BL/6N mice (manufactured by CLEA Japan, Inc.), a method for producing the deficient mice was as described in Non Patent Document 1), osteoblasts were isolated by allowing 0.1% by mass of type 1 collagenase and 0.2% by mass of dispase to act at 37° C. for 20 minutes, and the cells were cultured in α-MEM and a bone differentiation medium (containing 50 μg/ml ascorbic acid and 10 mM β-glycerol 2-phosphate). Ethanol (final concentration 0.1% by mass) and erythromycin (10 μg/mL) were added into the medium in which the osteoblasts (1×10^4 cells/mL) derived from the wild-type mice or the DEL-1-deficient mice were cultured. The medium was exchanged every 3 days, and after 15 days, the cells were stained with Alizarin red S, followed by performing of bone nodule measurement.\nNext, the proportion (%) of bone nodules with respect to the observation region in the above-described osteoblasts was calculated from microscopic images by using image processing software (NIH Image). In addition, RNA was extracted from each of the osteoblasts by using an RNeasy Kit (manufactured by QIAGEN NV), subsequently cDNA was synthesized by using a cDNA synthesis kit (manufactured by Thermo Fisher Scientific, Inc.), and the relative expression levels of RUNX2 mRNA, Sp7 mRNA, and Bglap mRNA, which are important for bone regeneration, were checked by an RT-PCR method (Quantstudio3, Thermo Fisher Scientific, Inc.). Regarding primers, designed primers manufactured by Thermo Fisher Scientific, Inc. were used. The Assay IDs of the primers used are shown below.\n(Bone regeneration-inducing effect 2 by various macrolide antimicrobial agents) From the cranial bones of 3-day-old wild-type mice (N=6, male C57BL/6N mice, manufactured by CLEA Japan, Inc.), osteoblasts were isolated by allowing 0.1% by mass of type 1 collagenase and 0.2% by mass of dispase to act at 37° C. for 20 minutes, and the cells were cultured in α-MEM and a bone differentiation medium (containing 50 μg/ml ascorbic acid and 10 mM β-glycerol 2-phosphate). Ethanol (final concentration 0.1% by mass), or erythromycin, clarithromycin, or azithromycin (10 μg/mL each) was added into the medium in which the osteoblasts (1×10^4 cells/mL) derived from the wild-type mice were cultured. The medium was exchanged every 3 days, and after 15 days, the cells were stained with Alizarin red S, followed by performing of bone nodule measurement. The results are shown in FIG. 11 In FIG. 11, the symbol * indicates p<0.05, and the symbol ** indicates p<0.01. In addition, the control is an ethanol (final concentration 0.1% by mass)-added group."}, "[3]": {"system": "bone defects in the jawbones", "assay": "jawbone defect regeneration in cynomolgus monkeys (microCT)", "type": "in vivo", "details": "200 μg at bone defect site, one month", "description": "Bone defects with a diameter of 2 cm and a depth of 2 cm were artificially produced in the jawbones of young (2 years old) and aged (10 years old) cynomolgus monkeys by using a round steel bar. Next, 200 μg of each of erythromycin, clarithromycin, and azithromycin were added to the bone defect sites. As controls, a non-administered group and a group administered with 200 μg of REGROTH (registered trademark), which has been approved as a bone regenerative agent, were also prepared. The amount of bone regeneration after one month from the administration of each drug was checked by using microCT. In FIG. 10, the symbol * indicates p<0.01."}, "[4]": {"system": "iCell mesenchymal stem cells", "assay": "bone nodule measurement in mesenchymal stem cells induced from human iPS cells", "type": "cell-based", "details": "10 μg/mL for each; 15 days; bone differentiation medium", "description": "iCell (registered trademark) mesenchymal stem cells (iCell (registered trademark) MSCs) (#01279, manufactured by Fujifilm Corporation) (1×10^4 cells/mL) obtained by inducing human mesenchymal stem cells from iPS cells, were cultured in α-MEM and a bone differentiation medium (containing 50 μg/mL ascorbic acid and 10 mM β-glycerol 2-phosphate). Ethanol (final concentration 0.1% by mass), or erythromycin, clarithromycin, or azithromycin (10 μg/mL for each) was added to the medium. The medium was exchanged every 3 days, and after 15 days, the cells were stained with Alizarin red S, followed by performing of bone nodule measurement. The results are shown in FIG. 18 (stained images) and FIG. 19 (graph showing the proportion of bone nodules). In FIG. 18 and FIG. 19, the ethanol (final concentration 0.1% by mass)-added group is a control. In FIG. 19, the symbol * indicates p≤0.05, the symbol ** indicates p≤0.01, the symbol *** indicates p≤0.001, and the symbol **** indicates p≤0.0001."}, "[5]": {"details": "aged (10 years old) cynomolgus monkeys"}, "[6]": {"details": "young (2 years old) cynomolgus monkeys"}},
  "note": "“Also recorded” adds a separate entry of the source.",
  "data": [
    {"smiles": "CC[C@H]1OC(=O)[C@H](C)[C@@H](O[C@H]2C[C@@](C)(OC)[C@@H](O)[C@H](C)O2)[C@H](C)[C@@H](O[C@@H]2O[C@H](C)C[C@H](N(C)C)[C@H]2O)[C@](C)(OC)C[C@@H](C)C(=O)[C@H](C)[C@@H](O)[C@]1(C)O", "note": "[clarithromycin]", "values": [
      {"measurement": "bone regeneration (FIG. 9)", "setting": "[1]", "result": "bone regeneration was recognized"},
      {"measurement": "formation of bone nodules (FIG. 11)", "setting": "[2]", "result": "the formation of bone nodules was recognized"},
      {"measurement": "bone regeneration effect (FIG. 10)", "setting": "[3]; [5]", "result": "a bone regeneration effect was recognized"},
      {"measurement": "bone regeneration effect (FIG. 10)", "setting": "[3]; [6]", "result": "a bone regeneration effect was recognized"},
      {"measurement": "formation of bone nodules (FIG. 18, FIG. 19)", "setting": "[4]", "result": "the formation of bone nodules was recognized"}
    ]},
    {"smiles": "CC[C@H]1OC(=O)[C@H](C)[C@@H](O[C@H]2C[C@@](C)(OC)[C@@H](O)[C@H](C)O2)[C@H](C)[C@@H](O[C@@H]2O[C@H](C)C[C@H](N(C)C)[C@H]2O)[C@](C)(O)C[C@@H](C)CN(C)[C@H](C)[C@@H](O)[C@]1(C)O", "note": "[azithromycin]", "values": [
      {"measurement": "bone regeneration (FIG. 9)", "setting": "[1]", "result": "bone regeneration was recognized"},
      {"measurement": "formation of bone nodules (FIG. 11)", "setting": "[2]", "result": "the formation of bone nodules was recognized; also recorded: particularly favorable"},
      {"measurement": "bone regeneration effect (FIG. 10)", "setting": "[3]; [5]", "result": "a bone regeneration effect was recognized"},
      {"measurement": "bone regeneration effect (FIG. 10)", "setting": "[3]; [6]", "result": "a bone regeneration effect was recognized"},
      {"measurement": "formation of bone nodules (FIG. 18, FIG. 19)", "setting": "[4]", "result": "the formation of bone nodules was recognized"}
    ]}
  ]
}
